From patent publication US8106004B2, “Methods of inhibiting tumor cell aggressiveness using the microenvironment of human embryonic stem cells” (Children's Memorial Hospital, priority 2006, dated 2012)

Experiments:
Format in all cases: cell-based, human
Notch = test: Western blot analysis of Notch 1, 2 and 4 in C8161 cells; settings: C8161 treated with Nodal inhibitor
Description: Western blot analysis of C8161 cells 72 hrs following the administration of siRNA. […] Western blot analysis of Notch 1, 2 and 4 in C8161 cells treated with the Nodal inhibitor SB431542.

C8161 cells [1] = test: MICS (Membrane Invasion Culture System) invasion assay; settings: C8161, ALK 4/5/7 inhibitor
Description: (A) Invasion of C8161 cells following culture on unconditioned Matrigel (Control) or Matrigel preconditioned by either H1 or HSF-6 hESCs was calculated as a percentage of cells able to invade through a defined matrix (collagen IV, laminin, and gelatin)-coated membrane during a 24 hour period using the MICS (Membrane Invasion Culture System) assay. Bars represent the mean, normalized, invasion indices±standard deviations. […] (B) In vivo tumor formation in a mouse injected with C8161 cells pre-exposed for 3 days to either a control matrix (Matrigel) or a matrix conditioned by hESCs (H9 CMTX) (n=21).
The aggressiveness of tumor cells is correlated with their ability to invade through the extracellular matrix; thus, the effect of hESC microenvironments on melanoma cell invasion was investigated.
The derivation and phenotypic characteristics of the human melanoma cell lines have been previously described. Seftor, et. al., 2002, Clin. Experim. Metastas. 19:233-246; Seftor, et. al., 2005 Cancer Res. 65:10164-10169. […] The cultures are determined to be free of mycoplasma contamination using a PCR-based assay (Roche). […]

C8161 cells [2] = test: Vasculogenic mimicry and plasticity biomarkers in C8161 cells with ALK 4/5/7 inhibitor; settings: C8161, ALK 4/5/7 inhibitor
Description: (A) Western blot analyses of Nodal, phosphorylated SMAD-2, total SMAD 2/3, and Actin in C8161 cells 48 hours after administration of either vehicle or an ALK 4/5/7 inhibitor (SB431542, 1 μM, 10 μM). […] (B) Western blot analyses of Nodal, Tyrosinase and Actin in C8161 cells 24 hours after the administration of either vehicle or different concentrations of ALK inhibitor while (C) is a Western analyses for VE-Cadherin, Keratin 18 and Actin in C8161 cells cultured on 3-D collagen I matrices for 6 days in the presence of vehicle or different concentrations of ALK inhibitor.

Nodal = Nodal expression in C8161 cells (Western blot, real time RT-PCR); settings: C8161, ALK 4/5/7 inhibitor 1 μM, 10 μM
Description: A determination of the effects of H9 CMTX on Nodal expression in metastatic melanoma (C8161) and breast carcinoma (MDA-MB-231) cells was undertaken. […] Exposure to H9 CMTX similarly abrogates Nodal mRNA expression in the melanoma and breast carcinoma cells (FIG. 9C).
Protein lysates were prepared and quantified as previously described in Hess et al., 2001, Cancer Res. 61:3250-3255. Equal amounts of protein were separated by SDS-polyacrylamide gel electrophoresis under reducing conditions, and the resolved proteins were transferred onto Immobilon-P membranes (Millipore Corp., Bedford, Mass.). Membranes were blocked in 1% TBS, 0.1% Tween 20 (TBS-T) and 5% dry milk powder or 3% gelatin (for Nodal Westerns). Blots were incubated with anti-Nodal or anti-Lefty antibodies (Polyclonal rabbit anti-Nodal (H-110) 1:500 Santa Cruz Biotechnology, Santa Cruz, Calif.; Polyclonal goat anti-Lefty 1:500 R&D Systems, Minneapolis, Minn.), washed in TBS-T, and incubated with the appropriate horseradish peroxidase-labeled secondary antibody. Secondary antibodies were detected by enhanced chemiluminescence (Super Signal; Pierce, Rockford, Ill.) and exposure to autoradiography film (Molecular Technologies, St Louis, Mo.). Nodal protein was detected as two major bands at ˜48 and ˜35 kDa representing precursor and pro-Nodal respectively. Nodal often appeared as multiple bands, likely due to degradation of protein modifications. All experiments were done at least three times.
The derivation and phenotypic characteristics of the human melanoma cell lines have been previously described. Seftor, et. al., 2002, Clin. Experim. Metastas. 19:233-246; Seftor, et. al., 2005 Cancer Res. 65:10164-10169. The melanoma cell lines are maintained in RPMI 1640 medium (Invitrogen) supplemented with 10% fetal bovine serum (FBS, Gemini Bioproducts) and 0.1% gentamycin sulfate with the exception of C81-61 cells which are maintained in Ham's FIO medium supplemented with 15% FBS, 1X Mito+ (BD Bioscience) and gentamycin sulfate. […] The cultures are determined to be free of mycoplasma contamination using a PCR-based assay (Roche). […]

For `NC(=O)c1ccc(-c2nc(-c3ccc4c(c3)OCO4)c(-c3ccccn3)[nH]2)cc1` [SB431542], which “Notch expression (Western blot)” value (Notch) is on record?
The value was “relatively unaffected”.

And the invasive ability (C8161 cells [1])?
Its invasive ability is “reduction in invasive ability”.

And the “expression of vasculogenic mimicry plasticity biomarkers (Western blot)” value (C8161 cells [2])?
The value was “reduction”.

What about the vasculogenic mimicry (C8161 cells [2]) of the same compound?
Its vasculogenic mimicry is “abrogation of vasculogenic mimicry”.

And the “Nodal expression (Western blot)” value (Nodal)?
Its value is “down-regulation of Nodal”.
